{"source": "patent US12336981B2", "about": "“Compounds and compositions for the inhibition of NAMPT” (Valo Health, Inc., priority 2010, dated 2025)", "key": {"U251 cells": {"test_system": "U251 cells", "experiment": "In-vitro cell proliferation assay (SRB), U251 cells", "format": "cell-based", "details": "Homo sapiens, U-251, 72 hours", "method": "After overnight incubation at 37° C. and 5% CO2, the compound titrations were performed in a separate dilution plate by serially diluting the compounds in DMSO to make a 1000× stock. The compounds were then further diluted to 10× final concentration in culture media, whereupon 20 μL of each dilution was added to the plated cells with controls (e.g. DMSO and blank) to make a final volume of 5 200 μL. The final DMSO concentration in each well was 0.1%. The plates were then incubated for 72 hours at 37° C. in a 5% CO2 incubator. The number of viable cells was then assessed using sulforhodamine B (SRB) assay. Cells were fixed at 4° C. for 1 hour with the addition of 50 μL 30% trichloroacetic acid (TCA) to make a final concentration of 6% 10 TCA. The plates were washed four times with H2O and allowed to dry for at least 1 hour, whereupon 100 μL of a 4% SRB in 1% acetic acid solution was added to each well and incubated at room temperature for at least 30 minutes. The plates were then washed three times with 1% acetic acid, dried, and treated with 100 μL of 10 mM Tris-Base solution. The plates were then read in a microplate reader at an absorbance of 570 nm. 15 Background was generated on a separate plate with media only. Method for Determining % Inhibition First, the signals from the background plate are averaged, then the background was subtracted from the test plates."}, "A2780 cells [1]": {"test_system": "A2780 cells", "experiment": "Xenograft studies: A2780 tumors s.c. in C.B-17-Igh-1b-Prkdc scid mice", "format": "in vivo", "details": "female scid mice, p.o. BID for 5 or 10 days, dose selected from MTD study", "method": "C.B-17-Igh-1b-Prkdc^scid mice (female) were injected s.c. with 5×10^6 A2780 cells (NCI) in the left flank. 10-12 days later when tumors reached 100-200 mm3 in size, mice were randomized into treatment groups of 8 mice per group including vehicle control and reference standard groups. The compounds were formulated in 60:30:10 PEG-400: D5W: Ethanol and administered p.o., at the dose volume of 10 ml/kg BID for a duration of 5 or 10 days. The dose used for efficacy was selected from the MTD (Maximum Tolerated Dose) study. Mice were weighed and tumors measured using vernier calipers every alternate day. Tumor volume was calculated according to the formula (length×width^2)/2. All animal work was approved by the Institutional Animal Care and Use Committee of Biological Resource Centre, Singapore."}, "NAMPT": {"molecular_target": "T1, NAMPT (Homo sapiens, UniProt P43490)", "T1 construct": "His tag; host or cells: E. coli", "T1 sequence (P43490 whole entry)": "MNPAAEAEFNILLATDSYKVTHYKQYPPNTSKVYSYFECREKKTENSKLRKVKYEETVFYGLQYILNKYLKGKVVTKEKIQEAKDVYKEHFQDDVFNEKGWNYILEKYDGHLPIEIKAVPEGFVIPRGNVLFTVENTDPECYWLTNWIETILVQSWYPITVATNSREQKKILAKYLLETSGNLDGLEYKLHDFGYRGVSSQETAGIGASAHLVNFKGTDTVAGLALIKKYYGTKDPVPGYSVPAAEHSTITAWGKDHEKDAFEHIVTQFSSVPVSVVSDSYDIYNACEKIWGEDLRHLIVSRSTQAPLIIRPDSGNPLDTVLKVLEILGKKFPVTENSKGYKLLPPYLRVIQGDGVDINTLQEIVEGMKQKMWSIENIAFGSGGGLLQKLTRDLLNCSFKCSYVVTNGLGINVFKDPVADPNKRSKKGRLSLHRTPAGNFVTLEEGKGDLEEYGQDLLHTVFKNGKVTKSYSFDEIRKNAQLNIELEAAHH", "experiment": "Biochemical inhibition assay: NAMPT enzymatic reaction, NMN quantified by mass spectrometry", "details": "NAMPT enzymatic reaction; read-out: Biochem IC50", "summary_of_the_method": "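Inhibition of E. coli-expressed His-tagged human NAMPT, measured as NMN formation by mass spectrometry after a 30 min room-temperature reaction containing 1 μM NAM, 100 μM PRPP and 2.5 mM ATP.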"}, "A2780 cells [2]": {"test_system": "A2780 cells", "experiment": "In-vitro cell proliferation assay (SRB), A2780 cells", "format": "cell-based", "details": "Homo sapiens, A2780, 72 h, A2780 cells, 72 hours, SRB assay; read-out: A2780 IC50", "summary_of_the_method": "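Proliferation is assessed by sulforhodamine B staining following a 72-hour incubation with compound dilutions containing 0.1% DMSO.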"}, "HepG2 cells": {"test_system": "HepG2 cells", "details": "Hasmann et al. 2003; cited from earlier work"}, "mouse mammary carcinoma": {"test_system": "mouse mammary carcinoma", "details": "in vivo; cited from earlier work"}, "[3]": {"test_system": "murine renal cell carcinoma", "details": "Drevs et al. 2003; cited from earlier work"}, "tumor cell lines": {"test_system": "tumor cell lines", "details": "broad range of tumor cell lines; Ravaud et al. 2005; cited from earlier work"}}, "note": "Where a name gives a salt, the structure may show the parent alone."}
{"smiles": "O=C(NCc1ccc(S(=O)(=O)c2ccccc2)cc1)c1cc2ncccc2s1", "note": "[N-{[4-(benzenesulfonyl)phenyl]methyl}thieno[3,2-b]pyridine-2-carboxamide]", "values": [{"measurement": "IC50", "setting": "U251 cells", "value": "> 2", "unit": "µM"}]}
{"smiles": "COc1cc(-n2cccn2)ccc1S(=O)(=O)c1ccc(CNC(=O)c2cc3cnccc3[nH]2)cc1", "note": "[N-[(4-{[2-methoxy-4-(1H-pyrazol-1-yl)benzene]sulfonyl}phenyl)methyl]-1H-pyrrolo[3,2-c]pyridine-2-carboxamide]", "values": [{"measurement": "Effect on tumor in A2780 xenograft", "setting": "A2780 cells [1]", "value": "delayed tumor growth"}, {"measurement": "IC50", "setting": "NAMPT", "value": 0.016, "unit": "µM"}, {"measurement": "IC50", "setting": "A2780 cells [2]", "value": 0.002, "unit": "µM"}]}
{"smiles": "O=C(NCc1ccc(S(=O)(=O)c2ccccc2)cn1)c1cc2cnccc2[nH]1", "note": "[N-{[5-(benzenesulfonyl)pyridin-2-yl]methyl}-1H-pyrrolo[3,2-c]pyridine-2-carboxamide]", "values": [{"measurement": "IC50", "setting": "U251 cells", "value": 0.035, "unit": "µM"}]}
{"smiles": "O=C(NCc1ccc(S(=O)(=O)c2ccccc2)cc1)c1cc2cnccc2[nH]1", "note": "[N-{[4-(benzenesulfonyl)phenyl]methyl}-1H-pyrrolo[3,2-c]pyridine-2-carboxamide]", "values": [{"measurement": "IC50", "setting": "U251 cells", "value": 0.04, "unit": "µM"}, {"measurement": "Effect on tumor in A2780 xenograft", "setting": "A2780 cells [1]", "value": "tumor regression"}]}
{"smiles": "O=C(NCc1ccc(S(=O)(=O)c2cccc(Cl)c2)cc1)c1cc2cnccc2[nH]1", "note": "[N-({4-[(3-chlorobenzene)sulfonyl]phenyl}methyl)-1H-pyrrolo[3,2-c]pyridine-2-carboxamide]", "values": [{"measurement": "Effect on tumor in A2780 xenograft", "setting": "A2780 cells [1]", "value": "tumor regression"}, {"measurement": "IC50", "setting": "NAMPT", "value": 0.005, "unit": "µM"}, {"measurement": "IC50", "setting": "A2780 cells [2]", "value": 0.003, "unit": "µM"}]}
{"smiles": "O=C(NCc1ccc(S(=O)(=O)c2ccccc2)nc1)c1cc2cnccc2[nH]1", "note": "[N-{[6-(benzenesulfonyl)pyridin-3-yl]methyl}-1H-pyrrolo[3,2-c]pyridine-2-carboxamide]", "values": [{"measurement": "IC50", "setting": "U251 cells", "value": "> 2", "unit": "µM"}]}
{"smiles": "O=C(NCc1ccc(S(=O)(=O)c2ccc(F)cc2)cc1)c1cc2cnccc2[nH]1", "note": "[N-({4-[(4-fluorobenzene)sulfonyl]phenyl}methyl)-1H-pyrrolo[3,2-c]pyridine-2-carboxamide]", "values": [{"measurement": "Effect on tumor in A2780 xenograft", "setting": "A2780 cells [1]", "value": "tumor regression"}, {"measurement": "IC50", "setting": "NAMPT", "value": 0.038, "unit": "µM"}, {"measurement": "IC50", "setting": "A2780 cells [2]", "value": 0.008, "unit": "µM"}]}
{"smiles": "O=C(NCc1ccc(S(=O)(=O)c2ccccc2)cc1)c1cc2ncccc2o1", "note": "[N-{[4-(benzenesulfonyl)phenyl]methyl}furo[3,2-b]pyridine-2-carboxamide]", "values": [{"measurement": "IC50", "setting": "U251 cells", "value": 0.545, "unit": "µM"}]}
{"smiles": "O=C(/C=C/c1cccnc1)NCCCCC1CCN(C(=O)c2ccccc2)CC1", "note": "[FK866, (E)-N-[4-(1-benzoylpiperidin-4-yl)butyl]-3-(pyridine-3-yl)-acrylamide]", "values": [{"measurement": "Apoptosis in HepG2 cells", "setting": "HepG2 cells", "value": "induces apoptosis"}, {"measurement": "Tumor growth in mouse mammary carcinoma model", "setting": "mouse mammary carcinoma", "value": "delay in tumor growth"}, {"measurement": "Activity in murine renal cell carcinoma model", "setting": "[3]", "value": "anti-tumor, antimetastatic, and anti-angiogenic activities"}]}
{"smiles": "O=C(NCc1ccc(S(=O)(=O)c2ccccc2)cc1)c1ccc2cncn2c1", "note": "[N-{[4-(benzenesulfonyl)phenyl]methyl}imidazo[1,5-alpyridine-6-carboxamide]", "values": [{"measurement": "IC50", "setting": "U251 cells", "value": "> 2", "unit": "µM"}]}
{"smiles": "O=C(NCc1ccc(S(=O)(=O)Nc2ccccc2OC(F)(F)F)cc1)c1cc2cnccc2[nH]1", "note": "[N-[(4-{[2-(trifluoromethoxy)phenyl]sulfamoyl}phenyl)methyl]-1H-pyrrolo[3,2-c]pyridine-2-carboxamide]", "values": [{"measurement": "Effect on tumor in A2780 xenograft", "setting": "A2780 cells [1]", "value": "tumor stasis"}, {"measurement": "IC50", "setting": "NAMPT", "value": 0.006, "unit": "µM"}, {"measurement": "IC50", "setting": "A2780 cells [2]", "value": 0.001, "unit": "µM"}]}
{"smiles": "N#C/N=C(\\NCCCCCCOc1ccc(Cl)cc1)Nc1ccncc1", "note": "[CHS-828]", "values": [{"measurement": "Cell growth inhibition in tumor cell lines", "setting": "tumor cell lines", "value": "potently inhibit cell growth"}]}
{"smiles": "NC1CCN(S(=O)(=O)c2ccc(CNC(=O)c3cc4ccncc4s3)cc2)C1", "note": "(centres unmarked) [N-{[4-(3-aminopyrrolidine-1-sulfonyl)phenyl]methyl}thieno[2,3-c]pyridine-2-carboxamide hydrochloride]", "values": [{"measurement": "IC50", "setting": "U251 cells", "value": 0.31, "unit": "µM"}]}
{"smiles": "O=C(NCc1ccc(S(=O)(=O)N2CCNCC2)cc1)c1cc2ccncc2s1", "note": "[N-{[4-(pipcrazine-1-sulfonyl)phenyl]methyl}thieno[2,3-c]pyridine-2-carboxamide]", "values": [{"measurement": "IC50", "setting": "U251 cells", "value": 0.405, "unit": "µM"}]}
{"smiles": "O=C(NCc1ccc([S+]([O-])c2cc(F)cc(F)c2)cc1)c1ccc2nccn2c1", "note": "(centres unmarked) [N-({4-[(3,5-difluorobenzene)sulfinyl]phenyl}methyl)imidazo[1,2-a]pyridine-6-carboxamide]", "values": [{"measurement": "IC50", "setting": "U251 cells", "value": 0.0066, "unit": "µM"}]}
{"smiles": "NC1CCN(S(=O)(=O)c2ccc(CNC(=O)c3cc4ccncc4o3)cc2)C1", "note": "(centres unmarked) [N-{[4-(3-aminopyrrolidine-1-sulfonyl)phenyl]methyl}furo[2,3-c]pyridine-2-carboxamide hydrochloride]", "values": [{"measurement": "IC50", "setting": "U251 cells", "value": 1.85, "unit": "µM"}]}
{"smiles": "CC(=O)c1ccc(S(=O)(=O)c2ccc(CNC(=O)c3cc4cnccc4[nH]3)cc2)cc1", "note": "[N-({4-[(4-acetylbenzene)sulfonyl]phenyl}methyl)-1H-pyrrolo[3,2-c]pyridine-2-carboxamide]", "values": [{"measurement": "Effect on tumor in A2780 xenograft", "setting": "A2780 cells [1]", "value": "tumor regression"}, {"measurement": "IC50", "setting": "NAMPT", "value": 0.007, "unit": "µM"}, {"measurement": "IC50", "setting": "A2780 cells [2]", "value": 0.003, "unit": "µM"}]}
{"smiles": "O=C(NCc1ccc(S(=O)(=O)c2ccccc2)cc1)c1cc2ccncc2s1", "note": "[N-{[4-(benzenesulfonyl)phenyl]methyl}thieno[2,3-c]pyridine-2-carboxamide]", "values": [{"measurement": "Effect on tumor in A2780 xenograft", "setting": "A2780 cells [1]", "value": "tumor regression"}, {"measurement": "IC50", "setting": "NAMPT", "value": 0.011, "unit": "µM"}, {"measurement": "IC50", "setting": "A2780 cells [2]", "value": 0.012, "unit": "µM"}]}
{"smiles": "O=C(NCc1ccc(S(=O)(=O)c2ccccc2OC(F)(F)F)cc1)c1cc2cnccc2[nH]1", "note": "[N-[(4-{[2-(trifluoromethoxy)benzene]sulfonyl}phenyl)methyl]-1H-pyrrolo[3,2-c]pyridine-2-carboxamide]", "values": [{"measurement": "Effect on tumor in A2780 xenograft", "setting": "A2780 cells [1]", "value": "tumor regression"}, {"measurement": "IC50", "setting": "NAMPT", "value": 0.016, "unit": "µM"}, {"measurement": "IC50", "setting": "A2780 cells [2]", "value": 0.003, "unit": "µM"}]}
{"smiles": "O=C(NCc1ccc(S(=O)(=O)c2cccnc2)cc1)c1cc2cnccc2[nH]1", "note": "[N-{[4-(pyridine-3-sulfonyl)phenyl]methyl}-1H-pyrrolo[3,2-c]pyridine-2-carboxamide]", "values": [{"measurement": "Effect on tumor in A2780 xenograft", "setting": "A2780 cells [1]", "value": "delayed tumor growth"}, {"measurement": "IC50", "setting": "NAMPT", "value": 0.021, "unit": "µM"}, {"measurement": "IC50", "setting": "A2780 cells [2]", "value": 0.048, "unit": "µM"}]}
{"smiles": "O=C(NCc1ccc(S(=O)(=O)N2CCNCC2)cc1)c1ccc2nccn2c1", "note": "[N-{[4-(piperazine-1-sulfonyl)phenyl]methyl}imidazo[1,2-a]pyridine-6-carboxamide]", "values": [{"measurement": "IC50", "setting": "U251 cells", "value": 0.556, "unit": "µM"}]}
{"smiles": "O=C(NCc1ccc(S(=O)(=O)c2ccccc2)cc1)c1ccc2nccn2c1", "note": "[N-{[4-(benzenesulfonyl)phenyl]methyl}imidazo[1,2-a]pyridine-6-carboxamide]", "values": [{"measurement": "Effect on tumor in A2780 xenograft", "setting": "A2780 cells [1]", "value": "tumor regression"}, {"measurement": "IC50", "setting": "NAMPT", "value": 0.021, "unit": "µM"}, {"measurement": "IC50", "setting": "A2780 cells [2]", "value": 0.011, "unit": "µM"}]}
{"smiles": "O=C(NCc1ccc(S(=O)(=O)c2ccc(F)cc2)cc1)c1ccc2nccn2c1", "note": "[N-({4-[(4-fluorobenzene)sulfonyl]phenyl}methyl)imidazo[1,2-a]pyridine-6-carboxamide]", "values": [{"measurement": "Effect on tumor in A2780 xenograft", "setting": "A2780 cells [1]", "value": "tumor regression"}, {"measurement": "IC50", "setting": "NAMPT", "value": 0.023, "unit": "µM"}, {"measurement": "IC50", "setting": "A2780 cells [2]", "value": 0.011, "unit": "µM"}]}
{"smiles": "O=C(NCc1ccc(S(=O)(=O)c2ccccc2)cc1)c1cn2ccnc2cn1", "note": "[N-{[4-(benzenesulfonyl)phenyl]methyl}imidazo[1,2-alpyrazinc-6-carboxamide]", "values": [{"measurement": "IC50", "setting": "U251 cells", "value": "> 2", "unit": "µM"}]}
